# Measurements as given in PMC3994669 (Cancer cell, 2014).
# Where two headings read alike, the source gives them in different places.
# Legend:
# [1] = test system: HepG2; test: Dose-response proliferation assay on HepG2 control cells; format: cell-based; conditions: Homo sapiens, HepG2, read-out: EC50 HepG2
# [2] = test system: Trp53-null neurospheres; test: Dose-response proliferation assay on control Trp53-null neurospheres; format: cell-based, mouse; conditions: for EC50: Mus musculus, 72 h, read-out: EC50 Trp53-null
# [3] = test system: Myc1 mouse G3 MB neurospheres; test: Dose-response proliferation assay; format: cell-based; conditions: for EC50: Mus musculus, 72 h, read-out: EC50 Myc1
# [4] = test system: H3K27me3; test: H3K27me3 immunoblotting of Myc1 cell lysates; format: cell-based, mouse; conditions: Myc1, 72 hr; 0.5 μM decitabine, 40 nM pemetrexed
# [5] = test system: four additional mouse G3 MB lines; test: Dose-response on four additional mouse G3 MB lines; format: cell-based; conditions: four independently derived mouse G3 MB lines
# [6] = test system: Myc1 neurospheres; test: In vitro wash-out experiments on Myc1; format: cell-based; conditions: Mus musculus
# [7] = test system: BJ; test: Dose-response proliferation assay on BJ control fibroblasts; format: cell-based; conditions: Homo sapiens, read-out: EC50 BJ
Compound,EC50 [1] [nM],EC50 [2] [nM],EC50 [3] [nM],further results
Nc1ccn([C@@H]2O[C@H](CO)[C@@H](O)[C@@H]2O)c(=O)n1 [Cytarabine],78,200,83,–
O=c1[nH]cc(F)c(=O)[nH]1 [Fluorouracil],–,220,360,–
Nc1ncn([C@H]2C[C@H](O)[C@@H](CO)O2)c(=O)n1 [Decitabine],–,32,1300,"H3K27me3 levels [4]: significantly decreased; potency and efficacy compared to Myc1 [5]: comparable potency and efficacy; EC50 ([6]; read-out: EC50 wash-out, 1 hr drug exposure, read 72 hr after): ~2400 nM; EC50 ([6]; read-out: EC50 wash-out, 10 hr drug exposure, read 72 hr after): ~920 nM; EC50 ([6]; read-out: EC50 wash-out, 24 hr drug exposure, read 72 hr after): ~500 nM; efficacy against Trp53-null ([2]; 72 hr treatment): ≤ 35%; efficacy against Myc1 ([3]; 72 hr treatment): 100%"
CC[C@@]1(O)C(=O)OCc2c1cc1n(c2=O)Cc2cc3c(CN(C)C)c(O)ccc3nc2-1 [Topotecan],90,180,75,–
COCc1c(C(C)C)nc(C(C)C)c(/C=C/[C@@H](O)C[C@@H](O)CC(=O)O)c1-c1ccc(F)cc1 [Cerivastatin],920,2500,770,–
COc1cc([C@@H]2c3cc4c(cc3[C@H](O)[C@H]3COC(=O)[C@H]23)OCO4)cc(OC)c1OC [Podofilox],3.9,7.4,6.4,–
Cc1nc2ccc(CN(C)c3ccc(C(=O)N[C@@H](CCC(=O)O)C(=O)O)s3)cc2c(=O)[nH]1 [Raltitrexed],–,340,3,–
COc1cc(NS(C)(=O)=O)ccc1Nc1c2ccccc2nc2ccccc12 [Amsacrine],11000,550,160,EC50 [7]: 13000 nM
COc1cc([C@@H]2c3cc4c(cc3[C@@H](O[C@@H]3O[C@@H]5CO[C@@H](C)O[C@H]5[C@H](O)[C@H]3O)[C@H]3COC(=O)[C@H]23)OCO4)cc(OC)c1O [Etoposide],–,46,240,–
CC(C)n1c(/C=C/C(O)CC(O)CC(=O)O)c(-c2ccc(F)cc2)c2ccccc21 (centres unmarked) [Fluvastatin],–,–,4500,–
CCc1nc(N)nc(N)c1-c1ccc(Cl)cc1 [Pyrimethamine],–,870,4900,–
Nc1nc2nc[nH]c2c(=S)[nH]1 [Thioguanine],11000,800,440,–
O=c1[nH]c(=O)n([C@H]2C[C@H](O)[C@@H](CO)O2)cc1F [Floxuridine],–,0.1,1.6,–
COc1cc(NCc2ccc3nc(N)nc(N)c3c2C)cc(OC)c1OC [Trimetrexate],–,4.7,35,–
COc1cccc2c1C(=O)c1c(O)c3c(c(O)c1C2=O)C[C@@](O)(C(=O)CO)C[C@@H]3O[C@H]1C[C@H](N)[C@H](O)[C@H](C)O1 [Doxorubicin],580,110,28,EC50 [7]: 140 nM
COc1cccc2c1C(=O)c1c(O)c3c(c(O)c1C2=O)C[C@@](O)(C(C)=O)C[C@@H]3O[C@H]1C[C@H](N)[C@H](O)[C@H](C)O1 [Daunorubicin],1700,36,7.5,EC50 [7]: 100 nM
Nc1nc(Cl)nc2c1ncn2[C@H]1C[C@H](O)[C@@H](CO)O1 [Cladrabine],3300,250,4.3,EC50 [7]: 1400 nM
